Measurements taken from patent US4413009A, “N-((Alkylamino)carbonyl)-N-(((alkylamino)carbonyl)oxy)acylamides with antineoplastic activity” (priority 1982, dated 1983).

Test system: HeLa cells
Assay: HeLa cell colony cytotoxicity / growth inhibition test
Assay type: cell-based, human
Details: 8 days, 0-50 μg/ml
Procedure: HeLa cells were seeded in 24-well tissue culture plates at a concentration of 30 cells per well in 1 ml of growth medium (Eagle's minimum essential medium with 5 percent HIFCS). The plates were incubated at 36° C. for 24 hours after which the growth medium was removed. The cells were resuspended in 1 ml of fresh growth medium described above together with a measured quantity of (0-50 μg/ml) of one of the compounds of this invention. The 0 μg/ml concentration served as a control. The tissue culture plates were then incubated at 36° C. for 8 days at which time the medium was removed and the cells were fixed and stained with 0.1% crystal violet in 20% ethanol. The HeLa cell colonies were counted macroscopically, and comparisons of colony size in treated and control wells were made. Test compounds were considered cytotoxic at concentrations which reduced the number of HeLa cell colonies compared to control by 50% or more. Test compounds of the invention were considered to cause HeLa cell growth inhibition at concentrations which reduced the size of colonies by a measurable amount when compared to control.

| Compound | Cell Growth Inhibition: concentration at which the size of the HeLa colonies were reduced by a measurable amount (as compared to control) [µg/mL] |
| --- | --- |
| CCNC(=O)ON(C(C)=O)C(=O)NCC [Example 2, N-((Ethylamino)carbonyl)-N-(((ethylamino)-carbonyl)oxy)acetamide] | 12.5 |
| CC(=O)N(OC(=O)NC(C)(C)C)C(=O)NC(C)(C)C [Example 3, N-(((1,1-dimethylethyl)amino)carbonyl)-N-((((1,1-dimethylethyl)amino)carbonyl)oxy)acetamide] | 12.5 |
| CCC(=O)N(OC(=O)NC)C(=O)NC [Example 4, N-((methylamino)carbonyl)-N-(((methyl-amino)carbonyl)oxy)propionamide] | 12.5 |
| CCNC(=O)ON(C(=O)CC)C(=O)NCC [Example 5, N-((ethylamino)carbonyl)-N-(((ethylamino)-carbonyl)oxy)propionamide] | 50 |
| CNC(=O)ON(C(=O)NC)C(=O)C(C)(C)C [Example 6, N-((Methylamino)carbonyl)-N-(((methylamino)-carbonyl)oxy)(2,2-dimethyl)propionamide] | 12.5 |
| CC(=O)N(OC(=O)NC1CCCCC1)C(=O)NC1CCCCC1 [Example 7, N-((Cyclohexylamino)carbonyl)-N-(((cyclohexylamino)carbonyl)oxy)acetamide] | 1.6 |
| CC(=O)N(OC(=O)NC(C)C)C(=O)NC(C)C [Example 8, N-(((1-Methylethyl)amino)carbonyl)-N-((((1-methylethyl)amino)carbonyl)oxy)acetamide] | 1.6 |
| CCCNC(=O)ON(C(C)=O)C(=O)NCCC [Example 9, N-((Propylamino)carbonyl)-N-(((propylamino)carbonyl)oxy)acetamide] | 6.3 |
| CC(=O)N(OC(=O)Nc1ccccc1)C(=O)Nc1ccccc1 [Example 10, N-((Phenylamino)carbonyl)-N-(((phenylamino)carbonyl)oxy)acetamide] | 50 |
| CC(=O)N(OC(=O)Nc1cccc(C)c1)C(=O)Nc1cccc(C)c1 [Example 11, N-(((3-methylphenyl)amino)carbonyl)-N-((((3-methylphenyl)amino)carbonyl)oxy)acetamide] | 50 |
| CC(=O)N(OC(=O)Nc1ccc(C)cc1)C(=O)Nc1ccc(C)cc1 [Example 12, N-(((4-Methylphenyl)amino)carbonyl)-N-((((4-methylphenyl)amino)carbonyl)oxy)acetamide] | 12.5 |
| CCCCNC(=O)ON(C(C)=O)C(=O)NCCCC [Example 13, N-((Butylamino)carbonyl)-N-(((butylamino)carbonyl)oxy)acetamide] | 3.1 |
| CC(C)NC(=O)ON(C(=O)NC(C)C)C(=O)c1ccccc1 [Example 14, N-(((1-Methylethyl)amino)carbonyl)-N-((((1-methylethyl)amino)carbonyl)oxy)benzamide] | 0.8 |
| CNC(=O)ON(C(=O)NC)C(=O)c1ccccc1 [Example 15, N-((Methylamino)carbonyl)-N-(((methylamino)-carbonyl)oxy)benzamide] | 3.1 |
| CCNC(=O)ON(C(=O)NCC)C(=O)c1ccccc1 [Example 16, N-((Ethylamino)carbonyl)-N-(((ethylamino)-carbonyl)oxy)benzamide] | 12.5 |
| CCCNC(=O)ON(C(=O)NCCC)C(=O)c1ccccc1 [Example 17, N-((Propylamino)carbonyl)-N-(((propylamino)-carbonyl)oxy)benzamide] | 12.5 |
| CCCCNC(=O)ON(C(=O)NCCCC)C(=O)c1ccccc1 [Example 18, N-((Butylamino)carbonyl)-N-(((butylamino)-carbonyl)oxy)benzamide] | 0.8 |
| CC(C)(C)NC(=O)ON(C(=O)NC(C)(C)C)C(=O)c1ccccc1 [Example 19, N-(((1,1-Dimethylethyl)amino)carbonyl)-N-((((1,1-dimethylethyl)amino)carbonyl)oxy)benzamide] | 50 |
| O=C(Nc1ccccc1)ON(C(=O)Nc1ccccc1)C(=O)c1ccccc1 [Example 20, N-((Phenylamino)carbonyl)-N-(((phenyl-amino)carbonyl)oxy)benzamide] | 50 |
| CCCNC(=O)ON(C(=O)NCCC)C(=O)C1CC1 [Example 22, N-((Propylamino)carbonyl)-N-(((propyl-amino)carbonyl)oxy)cyclopropanecarboxamide] | 3.1 |
| CNC(=O)ON(C(=O)NC)C(=O)C1CC1 [Example 23, N-((Methylamino)carbonyl)-N-(((methylamino)carbonyl)oxy)cyclopropanecarboxamide] | 12.5 |
| CCNC(=O)ON(C(=O)NCC)C(=O)C1CC1 [Example 24, N-((Ethylamino)carbonyl)-N-(((ethylamino)carbonyl)oxy)cyclopropanecarboxamide] | 3.1 |
| CC(C)NC(=O)ON(C(=O)NC(C)C)C(=O)C1CC1 [Example 25, N-(((1-Methylethyl)amino)carbonyl)-N-((((1-methylethyl)amino)carbonyl)oxy)cyclopropanecarboxamide] | 3.1 |
| CCCCNC(=O)ON(C(=O)NCCCC)C(=O)C1CC1 [Example 26, N-((Butylamino)carbonyl)-N-(((butylamino)carbonyl)oxy)cyclopropanecarboxamide] | 12.5 |
| CC(C)(C)NC(=O)ON(C(=O)NC(C)(C)C)C(=O)C1CC1 [Example 27, N-(((1,1-Dimethylethyl)amino)carbonyl)-N-((((1,1-dimethylethyl)amino)carbonyl)oxy)cyclopropanecarboxamide] | 50 |
